Experimental data as given in patent US5958496A, “Aspartyl dipeptide amide derivatives and sweeteners” (Ajinomoto Co., Inc., priority 1996, dated 1999).
Peptide text beside a SMILES is read from it.

How the values were obtained:
[1] = Sensory evaluation of degree of sweetness relative to sugar; settings: for degrees of sweetness: relative to a degree of sweetness of a 4% aqueous sucrose solution; for degree of sweetness: sensory evaluation
From the text: ^3 Degree of sweetness relative to a degree of sweetness of a 4%

[2] = Stability (half-life) in phosphate buffer of pH 3 at 70° C.; assay type: physicochemical; settings: acidic aqueous solution
Method: The peptides of the present invention may be 2 to 15 times as stable as aspartame when measured in a phosphate buffer of pH 3 at 70° C. This range in stability as compared to aspartame includes all specific values and subranges therebetween. The half-lives (in a phosphate buffer of pH 3 at 70° C.) of α-L-aspartyl-D-valine (R)-α-methylthiomethylbenzylamide, α-L-aspartyl-D-isoleucine (R)-α-methylthiomethylbenzylamide and α-L-aspartyl-D-valine (S)-α-methoxycarbonylmethylbenzylamide in an acidic aqueous solution were approximately 220 hours, 650 hours and 139 hours respectively.

Row | Compound | degrees of sweetness [1] | Degree of sweetness (relative to sugar) [1] | degree of sweetness [1] | half-life [2]
1 | CC[C@@H](NC(=O)[C@@H](N)CC(=O)O)C(=O)NC(CC(=O)OC)c1ccccc1 (mixture of isomers) [Example 10, α-L-aspartyl-D-α-aminobutyric acid (RS)-α-methoxycarbonylmethylbenzylamide] | 800 | 800 times | – | –
2 | CSC[C@H](NC(=O)[C@H](NC(=O)[C@H](CC(=O)O)NCCC(C)(C)C)C(C)C)c1ccccc1 [Example 17, N-3,3-dimethylbutyl-α-L-aspartyl-D-valine (R)-α-methylthiomethylbenzylamide] | 5000 | 5,000 times | approximately 5,000 times that of sugar | –
3 | CC[C@@H](NC(=O)[C@@H](N)CC(=O)O)C(=O)NC(CC(=O)OC)c1ccc(O)cc1 (mixture of isomers) [Example 13] | 200 | 200 times | – | –
4 | CC[C@@H](NC(=O)[C@H](CC(=O)O)NCCC(C)(C)C)C(=O)NC(CC(=O)OC)c1ccccc1 (mixture of isomers) [Example 18, N-3,3-dimethylbutyl-α-L-aspartyl-D-α-aminobutyric acid (RS)-α-methoxycarbonylmethylbenzylamide] | 1250 | 1,250 times | – | –
5 | CC[C@@H](NC(=O)[C@@H](N)CC(=O)O)C(=O)NC(CC(=O)OC)c1cccc2c1OCO2 (mixture of isomers) [Example 12] | 250 | 250 times | – | –
6 | COC(=O)[C@H](Cc1ccccc1)NC(=O)[C@@H](N)CC(=O)O [aspartame, reference compound] (H-Asp-Phe-OMe) | – | – | – | approximately 23 hours
7 | CC(C)[C@@H](NC(=O)[C@@H](N)CC(=O)O)C(=O)NC1(c2ccccc2)CCCC1 [Example 8, α-L-aspartyl-D-valine α-phenylcyclopentylamide] | 1200 | 1,200 times | approximately 1,200 times that of sugar | –
8 | COC(=O)CC(NC(=O)[C@H](NC(=O)[C@@H](N)CC(=O)O)C(C)C)C1CCCCC1 (mixture of isomers) [Example 6, α-L-aspartyl-D-valine (RS)-α-cyclohexyl-β-methoxycarbonylethylamide] | 400 | 400 times | – | –
9 | CC[C@@H](NC(=O)[C@@H](N)CC(=O)O)C(=O)N[C@@H](CSC)c1ccccc1 [Example 3, α-L-aspartyl-D-α-aminobutyric acid (R)-α-methylthiomethylbenzylamide] | 4000 | 4,000 times | approximately 4,000 times that of sugar | –
10 | CC[C@@H](NC(=O)[C@H](CC(=O)O)NCCC(C)(C)C)C(=O)NC(CC(=O)OC)C1CCCCC1 (mixture of isomers) [Example 20, N-3,3-dimethylbutyl-α-L-aspartyl-D-α-aminobutyric acid (RS)-α-cyclohexyl-β-methoxycarbonylethylamide] | 1250 | 1,250 times | – | –
11 | CC[C@@H](NC(=O)[C@@H](N)CC(=O)O)C(=O)NC(CC(=O)OC)c1ccc(OC)cc1 (mixture of isomers) [Example 11] | 200 | 200 times | – | –
12 | CC[C@@H](C)[C@@H](NC(=O)[C@@H](N)CC(=O)O)C(=O)NC(C)(C)c1ccccc1 [Example 9, α-L-aspartyl-D-isoleucine α,α-dimethylbenzylamide] | 250 | 250 times | – | –
13 | COC(=O)C[C@H](NC(=O)[C@H](NC(=O)[C@@H](N)CC(=O)O)C(C)C)c1ccccc1 [Example 5, α-L-aspartyl-D-valine (S)-α-methoxycarbonylmethylbenzylamide] | 1500 | 1,500 times | approximately 1,500 times that of sugar | ~5.79 days
14 | COC(=O)CC(NC(=O)[C@H](NC(=O)[C@H](CC(=O)O)NCCC(C)(C)C)C(C)C)c1ccccc1 (mixture of isomers) [Example 19, N-3,3-dimethylbutyl-α-L-aspartyl-D-valine (RS)-α-methoxycarbonylmethylbenzylamide] | 1250 | 1,250 times | – | –
15 | CC[C@@H](NC(=O)[C@@H](N)CC(=O)O)C(=O)NC1(c2ccccc2)CCCC1 [Example 7, α-L-aspartyl-D-α-aminobutyric acid α-phenylcyclopentylamide] | 750 | 750 times | – | –
16 | CC[C@@H](NC(=O)[C@@H](N)CC(=O)O)C(=O)NC(CC(=O)OC)c1ccc(C)cc1 (mixture of isomers) [Example 14] | 200 | 200 times | – | –
17 | CC(C)[C@@H](NC(=O)[C@@H](N)CC(=O)O)C(=O)NC(C)(C)c1ccccc1 [Example 16, α-L-aspartyl-D-valine α,α-dimethylbenzylamide] | 500 | 500 times | – | –
18 | CC[C@@H](C)[C@@H](NC(=O)[C@@H](N)CC(=O)O)C(=O)N[C@@H](CSC)c1ccccc1 [Example 4, α-L-aspartyl-D-isoleucine (R)-α-methylthiomethylbenzylamide] | 5000 | 5,000 times | approximately 5,000 times that of sugar | ~27.1 days
19 | CC[C@@H](NC(=O)[C@@H](N)CC(=O)O)C(=O)NC(CC(=O)OC)C1CCCCC1 (mixture of isomers) [Example 15, α-L-aspartyl-D-α-aminobutyric acid (RS)-α-cyclohexyl-β-methoxycarbonylethylamide] | 700 | 700 times | – | –
20 | CSC[C@H](NC(=O)[C@H](NC(=O)[C@@H](N)CC(=O)O)C(C)C)c1ccccc1 [Example 1, α-L-aspartyl-D-valine (R)-α-methylthiomethylbenzylamide] | 3000 | 3,000 times | approximately 3,000 times that of sugar | approximately 220 hours
21 | CSC[C@H](NC(=O)[C@@H](C)NC(=O)[C@@H](N)CC(=O)O)c1ccccc1 [Example 2, α-L-aspartyl-D-alanine (R)-α-methylthiomethylbenzylamide] | 1000 | 1,000 times | – | –
